The first data set relates to mouse hippocampal cell line (Ht22). The data set can be described thus: Inhibition of glutamate-induced non-apoptotic cell death (Example B.2). In kind it is cell-based. Particulars: HT-22, Ht22 cells, glutamate-induced cell death, read-out: Ht22/GLU. The text has this: Inhibition of Glutamate-Induced Non-Apoptotic Cell Death by Compounds of the Present Invention
Glutamate toxicity is conferred on cells from the mouse hippocampal cell line (Ht22) by inhibition of the cysteine/glutamate antiporter, System xc-, leading to impaired cysteine uptake and subsequent GSH depletion. This model is frequently used for mimicking glutathione depletion following oxidative stress in stroke, brain trauma and other neurodegenerative diseases and cellular conditions following ischemia (for example: van Leyen et al, J. Neurochem. 92:824-30 (2005)).
Compounds disclosed herein were evaluated for their ability to promote cell survival upon administration of a lethal dose of glutamate (GLU) to the cell-culture medium.
Briefly, Ht22 cells (ATCC) were propagated DMEM supplemented with 10% FBS/1% Penicillin-Streptomycin, and then seeded onto 96-well plates at a concentration of 2,000 cells/well in 100 μL of MEDIA, simultaneously with glutamate (Sigma Aldrich) to a final concentration of 5 mM, together with increasing concentrations of the compound to be tested (0.5 pM to 100 μM), and the plates incubated at 37° C./5% CO2 for 72 hours. Compound dilutions were prepared from 10 mM stocks dissolved in DMSO and diluted in media. Cells treated with glutamate alone were used as negative control and alpha-tocopherol (Sigma Aldrich) was used as positive control. Compound concentrations were tested in triplicate. After incubation, cell survival was detected and quantified as described in Example B.1.
Consider `Clc1ccc(CNC2=Nc3cc(Cl)c(Cl)cc3NC23CCNCC3)cc1` [N-208], for which the IC50 was less than 0.05 µM.
In the case of `Clc1ccc(CNC2=Nc3ccccc3NC23CCCCC3)c(Cl)c1` [C-230], the IC50 was less than 0.5 µM.
Regarding `Clc1cccc(CNC2=Nc3cc(Cl)c(Cl)cc3NC23CCCCCC3)c1` [C-234], the IC50 was less than 0.5 µM.
Consider `CC(C)(C)c1ccc(CNC2=Nc3ccccc3NC23CCNCC3)cc1` [N-227], for which the IC50 was less than 0.01 µM.
Still for that read-out and setting: in the case of `Cc1cc2c(cc1C)NC1(CCCCCCC1)C(NCc1ccccc1)=N2` [C-241] it was less than 0.2 µM.
`Clc1cccc(CCNC2=Nc3ccccc3NC23CCNCC3)c1` [N-79]: the IC50 was less than 0.05 µM.
Still for that read-out and setting: the same measure for `Cc1cc(C)cc(CNC2=Nc3ccccc3NC23CCOCC3)c1` [O/S-344]: less than 2 µM; for `COc1cccc(CNC2=Nc3ccccc3NC23CCCCC3)c1` [C-47]: less than 1 µM.
Take `Fc1cccc(F)c1CNC1=Nc2ccccc2NC12CCCCC2` [C-222]: the IC50 is less than 1 µM.
In the case of `Fc1cccc(F)c1CNC1=Nc2cc(Cl)c(Cl)cc2NC12CCCCC2` [C-240], the IC50 was less than 0.2 µM.
For the compound `Cc1cc2c(cc1C)NC1(CCNCC1)C(NCc1cccc(Cl)c1)=N2` [N-111], the IC50 is less than 0.01 µM.
Still for that read-out and setting: the same measure for `CC(C)(C)c1ccc(CNC2=Nc3ccccc3NC23CCOCC3)cc1` [O/S-350]: less than 0.5 µM.
Turning to `c1ccc(CCNC2=Nc3ccccc3NC23CCCCC3)cc1` [C-226], the IC50 is less than 2 µM.
Turning to `c1ccc(CCNC2=Nc3ccccc3NC23CCNCC3)cc1` [N-226], the IC50 was less than 0.1 µM.
Same read-out and setting: the same measure for `FC(F)(F)c1cccc(CNC2=Nc3ccccc3NC23CCCCC3)c1` [C-23]: less than 0.5 µM.
The same measure, in the same setting: the same measure for `Cc1cccc(CNC2=Nc3cc(Cl)c(Cl)cc3NC23CCNCC3)c1` [N-224]: less than 0.05 µM.
On to `Clc1cc2c(cc1Cl)NC1(CCSCC1)C(NCc1ccccc1)=N2` [O/S-349], for which the IC50 is less than 0.5 µM.
As to `c1ccc(CCCCNC2=Nc3ccccc3NC23CCOCC3)cc1` [O/S-358], the IC50 was less than 2 µM.
As to `Cc1cccc(CNC2=Nc3ccccc3NC23CCOCC3)c1` [O/S-11], the IC50 is less than 5 µM.
Turning to `CN1CCC2(CC1)Nc1ccccc1N=C2NCc1ccccc1Cl` [N-209], the IC50 is less than 0.5 µM.
Regarding `Clc1cccc(CCNC2=Nc3ccccc3NC23CCCCC3)c1` [C-79], the IC50 is less than 0.5 µM.
In the case of `Clc1ccc(CNC2=Nc3ccccc3NC23CCNCC3)cc1Cl` [N-211], the IC50 is less than 0.05 µM.
In the case of `Fc1cc2c(cc1F)NC1(CCCCC1)C(NCc1ccccc1)=N2` [C-238], the IC50 is less than 0.2 µM.

The test system of the next data set is Pfa1 cells. The data set can be described thus: Inhibition of non-apoptotic cell death after tamoxifen-induced GPx4 knockout in a recombinant cell line (Example B.4). The class given is cell-based. Particulars: Mus musculus, read-out: Pfa1/TAM IC50. The text has this:
Inhibition of Non-Apoptotic Cell-Death by Compounds Disclosed Herein Using a Recombinant Cell Line
To combat high intracellular ROS levels, mammalian cells have evolved an intricate network of ROS scavenging in cells, in which the thioredoxin and glutathione (GSH) dependent systems prevail. […] Knockout of GPx4 in neurons causes massive neurodegeneration in cortical, cerebellar and hippocampal neurons underscoring the high relevance of ROS-induced cell death signaling in the brain. Briefly, immortalised fibroblasts from these mice were made to contain tamoxifen-inducible CreERT2, which catalyzes the functional ablation of both copies of GPx4 and resulting in a complete knockout of GPx4, a massive ROS burst, and cell death in cell culture. These cells (Pfa1 cells) were used to characterize compounds of the present invention, whereby tamoxifen (TAM) was given on day 0 along with the compound under test, and 72 hours later cell survival was evaluated using AlamarBlue.
Regarding `Clc1ccc(CNC2=Nc3cc(Cl)c(Cl)cc3NC23CCNCC3)cc1` [N-208], the IC50 was less than 0.01 µM.
In the case of `Clc1ccc(CNC2=Nc3ccccc3NC23CCCCC3)c(Cl)c1` [C-230], the IC50 was less than 0.1 µM.
With `Clc1cccc(CNC2=Nc3cc(Cl)c(Cl)cc3NC23CCCCCC3)c1` [C-234], the IC50 was less than 0.5 µM.
As to `CC(C)(C)c1ccc(CNC2=Nc3ccccc3NC23CCNCC3)cc1` [N-227], the IC50 is less than 0.01 µM.
For `Cc1cc2c(cc1C)NC1(CCCCCCC1)C(NCc1ccccc1)=N2` [C-241], the IC50 was less than 0.5 µM.
For `Clc1cccc(CCNC2=Nc3ccccc3NC23CCNCC3)c1` [N-79], the IC50 is less than 0.1 µM.
`Cc1cc(C)cc(CNC2=Nc3ccccc3NC23CCOCC3)c1` [O/S-344]: the IC50 was less than 1 µM.
On to `COc1cccc(CNC2=Nc3ccccc3NC23CCCCC3)c1` [C-47], for which the IC50 is less than 0.5 µM.
The same measure, in the same setting: in the case of `Fc1cccc(F)c1CNC1=Nc2ccccc2NC12CCCCC2` [C-222] it was less than 0.2 µM; in that of `Fc1cccc(F)c1CNC1=Nc2cc(Cl)c(Cl)cc2NC12CCCCC2` [C-240], less than 0.5 µM; in that of `Cc1cc2c(cc1C)NC1(CCNCC1)C(NCc1cccc(Cl)c1)=N2` [N-111], less than 0.01 µM.
Regarding `CC(C)(C)c1ccc(CNC2=Nc3ccccc3NC23CCOCC3)cc1` [O/S-350], the IC50 is less than 0.5 µM.
Same read-out and setting: the same measure for `c1ccc(CCNC2=Nc3ccccc3NC23CCCCC3)cc1` [C-226]: less than 1 µM.
In the case of `c1ccc(CCNC2=Nc3ccccc3NC23CCNCC3)cc1` [N-226], the IC50 is less than 0.1 µM.
On to `FC(F)(F)c1cccc(CNC2=Nc3ccccc3NC23CCCCC3)c1` [C-23], for which the IC50 is less than 0.05 µM.
As for `Cc1cccc(CNC2=Nc3cc(Cl)c(Cl)cc3NC23CCNCC3)c1` [N-224], the IC50 is less than 0.01 µM.
For the compound `Clc1cc2c(cc1Cl)NC1(CCSCC1)C(NCc1ccccc1)=N2` [O/S-349], the IC50 was less than 0.2 µM.
In the case of `c1ccc(CCCCNC2=Nc3ccccc3NC23CCOCC3)cc1` [O/S-358], the IC50 is less than 2 µM.
As for `Cc1cccc(CNC2=Nc3ccccc3NC23CCOCC3)c1` [O/S-11], the IC50 is less than 2 µM.
For `CN1CCC2(CC1)Nc1ccccc1N=C2NCc1ccccc1Cl` [N-209], the IC50 is less than 0.1 µM.
Take `Clc1cccc(CCNC2=Nc3ccccc3NC23CCCCC3)c1` [C-79]: the IC50 was less than 0.5 µM.
For the compound `Clc1ccc(CNC2=Nc3ccccc3NC23CCNCC3)cc1Cl` [N-211], the IC50 is less than 0.01 µM.
On to `Fc1cc2c(cc1F)NC1(CCCCC1)C(NCc1ccccc1)=N2` [C-238], for which the IC50 was less than 0.5 µM.

System in another data set: not listed separately
Kind of data set: Cellular toxicity, same assay as Example B.4 without TAM (Example B.5). The class given is cell-based. Particulars: mouse; Pfa1 cells without TAM; read-out: TC50 (the source's name). The text has this: Cellular Toxicity of Compounds of the Invention
An estimate of the toxicity for compounds of the invention was obtained by using the same assay as described in Example B.4, but without the addition of TAM. […] Such TC50 values obtained for certain compounds disclosed herein, together with an approximate therapeutic window (estimated by dividing each TC50 by the corresponding IC50 determined from example B.4) are shown in Table 3.
Consider `Clc1ccc(CNC2=Nc3cc(Cl)c(Cl)cc3NC23CCNCC3)cc1` [N-208], for which the CC50 fell in the range of 0.5 to 1 µM.
`Clc1ccc(CNC2=Nc3ccccc3NC23CCCCC3)c(Cl)c1` [C-230]: the CC50 lay in the range of 20 to 50 µM.
The same measure, in the same setting: the same measure for `Clc1cccc(CNC2=Nc3cc(Cl)c(Cl)cc3NC23CCCCCC3)c1` [C-234]: 20 to 50 µM; for `CC(C)(C)c1ccc(CNC2=Nc3ccccc3NC23CCNCC3)cc1` [N-227]: 0.5 to 1 µM.
Take `Cc1cc2c(cc1C)NC1(CCCCCCC1)C(NCc1ccccc1)=N2` [C-241]: the CC50 fell in the range of 5 to 10 µM.
For the compound `Clc1cccc(CCNC2=Nc3ccccc3NC23CCNCC3)c1` [N-79], the CC50 was 2 to 5 µM.
For `Cc1cc(C)cc(CNC2=Nc3ccccc3NC23CCOCC3)c1` [O/S-344], the CC50 was 20 to 50 µM.
On to `COc1cccc(CNC2=Nc3ccccc3NC23CCCCC3)c1` [C-47], for which the CC50 was 20 to 50 µM.
Still for that read-out and setting: in the case of `Fc1cccc(F)c1CNC1=Nc2ccccc2NC12CCCCC2` [C-222] it was 20 to 50 µM; in that of `Fc1cccc(F)c1CNC1=Nc2cc(Cl)c(Cl)cc2NC12CCCCC2` [C-240], 5 to 10 µM; in that of `Cc1cc2c(cc1C)NC1(CCNCC1)C(NCc1cccc(Cl)c1)=N2` [N-111], 1 to 2 µM.
`CC(C)(C)c1ccc(CNC2=Nc3ccccc3NC23CCOCC3)cc1` [O/S-350]: the CC50 is 20 to 50 µM.
Regarding `c1ccc(CCNC2=Nc3ccccc3NC23CCCCC3)cc1` [C-226], the CC50 fell in the range of 10 to 20 µM.
Same read-out and setting: the same measure for `c1ccc(CCNC2=Nc3ccccc3NC23CCNCC3)cc1` [N-226]: 10 to 20 µM; for `FC(F)(F)c1cccc(CNC2=Nc3ccccc3NC23CCCCC3)c1` [C-23]: 10 to 20 µM; for `Cc1cccc(CNC2=Nc3cc(Cl)c(Cl)cc3NC23CCNCC3)c1` [N-224]: 1 to 2 µM.
For the compound `Clc1cc2c(cc1Cl)NC1(CCSCC1)C(NCc1ccccc1)=N2` [O/S-349], the CC50 fell in the range of 20 to 50 µM.
With `c1ccc(CCCCNC2=Nc3ccccc3NC23CCOCC3)cc1` [O/S-358], the CC50 was in the range of 10 to 20 µM.
`Cc1cccc(CNC2=Nc3ccccc3NC23CCOCC3)c1` [O/S-11]: the CC50 is 50 to 100 µM.
As for `CN1CCC2(CC1)Nc1ccccc1N=C2NCc1ccccc1Cl` [N-209], the CC50 lay in the range of 5 to 10 µM.
The same measure, in the same setting: in the case of `Clc1cccc(CCNC2=Nc3ccccc3NC23CCCCC3)c1` [C-79] it was 2 to 5 µM; in that of `Clc1ccc(CNC2=Nc3ccccc3NC23CCNCC3)cc1Cl` [N-211], 1 to 2 µM; in that of `Fc1cc2c(cc1F)NC1(CCCCC1)C(NCc1ccccc1)=N2` [C-238], 20 to 50 µM.

The values are drawn from patent publication US10280179B2, “Spiroquinoxaline derivatives as inhibitors of non-apoptotic regulated cell-death” (Helmholtz Zentrum Munchen—Deutches Forschungszentrum Fur …, priority 2013, dated 2019).
